Measured values taken from patent US10493126B2, “Combination therapy for ameliorating adverse side effects caused by chemotherapy” (YEASTERN BIOTECH CO., LTD, priority 2014, dated 2019).
Values joined by “and” are separate entries in the source; they are usually repeats but may differ in a detail not shown here. Equal values may be shown once.

How the values were obtained:
[1] = system: BALB/cByJNarl mice; assay: Complete blood count in Docetaxel mice model; assay type: in vivo
Excerpt: (§1) Male BALB/cByJNarl mice (6-8 weeks old) were purchased from National Laboratory Animal Center (NLAC) in Taiwan and randomly divided into four groups, with five mice in Groups Docetaxel+PBS, Docetaxel+FIP-fve and Docetaxel+FIP-gts each and four in Control group. The mice were housed under pathogen-free conditions with a 12-hour light/12-hour dark schedule, and fed an autoclaved diet with ad libitum access to standard rodent chow (Laboratory Rodent Diet 5001, LabDiet, St. Louis, Mo., USA). Three days before the administration of Docetaxel (namely, Day-3), the mice in the Docetaxel+PBS Group started to be fed phosphate-buffered saline (PBS) at 100 μL/animal/day, and the daily feeding of PBS continued throughout the experiment. The mice were injected intravenously in the tail vein with Taxotere® (Aventis Pharma Ltd., Dagenham, UK) at a dose of 30 mg/kg body weight on Days 1, 8 and 15. The Docetaxel+FIP-fve and Docetaxel+FIP-gts Groups were administered Taxotere® at the same dose on the same days as described above. Additionally, the two treatment groups daily received 100 μL PBS added with either 200 μg FIP-fve or 400 μg FIP-gts throughout the experiment starting from Day-3 until the end of the experiment (Day 18). The FIP-gts protein used in this and other Examples disclosed herein was produced according to the method disclosed in WO2005040375A1. The FIP-fve protein used herein was purified from F. velutipes by the method disclosed in Ko J. L., Eur. J. Biochem. 1995; 228:244-249. The mice of the Control Group were given with PBS alone at 100 μL/animal/day without being injected with anti-cancer agent. Blood was sampled from the orbital sinus of the mice on days 4, 11 and 18 for subsequent analysis. The animals were sacrificed by CO2 asphyxiation on day 18. The protocol of the experiment is illustrated in FIG. 1.

[2] = system: BALB/cByJNarl mice; assay: Structural integrity of jejunal villus, H&E histology, Docetaxel mice model; assay type: in vivo; conditions: mice jejunum, FIG. 2A/2B
Excerpt: (§2) Male BALB/cByJNarl mice (6-8 weeks old) were purchased from National Laboratory Animal Center (NLAC) in Taiwan and randomly divided into four groups, with five mice in Groups Docetaxel+PBS, Docetaxel+FIP-fve and Docetaxel+FIP-gts each and four in Control group. The mice were housed under pathogen-free conditions with a 12-hour light/12-hour dark schedule, and fed an autoclaved diet with ad libitum access to standard rodent chow (Laboratory Rodent Diet 5001, LabDiet, St. Louis, Mo., USA). Three days before the administration of Docetaxel (namely, Day-3), the mice in the Docetaxel+PBS Group started to be fed phosphate-buffered saline (PBS) at 100 μL/animal/day, and the daily feeding of PBS continued throughout the experiment. The mice were injected intravenously in the tail vein with Taxotere® (Aventis Pharma Ltd., Dagenham, UK) at a dose of 30 mg/kg body weight on Days 1, 8 and 15. The Docetaxel+FIP-fve and Docetaxel+FIP-gts Groups were administered Taxotere® at the same dose on the same days as described above. […]
Intestinal samples from the jejunum of the sacrificed mice were fixed in 10% formalin and embedded in paraffin wax. […] The histological images of villi appeared in the intestinal samples are shown in FIG. 2A, and the lengths of villi measured by an NIS-Elements D 3.2 image analysis system (Nikon, Japan) were shown in FIG. 2B.

[3] = system: BALB/cByJNarl mice; assay: Micro CT of tibia, trabecular bone micro-architecture, Docetaxel mice model; assay type: in vivo; conditions: for porosity of knee, distal femur and proximal tibia samples, in words: FIG. 3B/3C, versus the mice group injected with Docetaxel alone
Excerpt: as §1
Tibiae were separated from right hind limbs of the mice and defleshed. Afterwards, individual tibiae were placed into 15 mL Falcons conical centrifuge tubes (Becton, Dickinson and Company, Franklin Lakes, N.J., USA) and covered with 70% ethanol. The tibia samples were sent to the Taiwan Mouse Clinic, funded by the National Research Program for Biopharmaceuticals (NRPB) of the National Science Council (NSC) in Taiwan, where the samples were scanned by applying three-dimensional micro-computed tomography (micro CT) in a high-resolution low-dose X-ray scanner (SkyScan 1076, Aartselaar, Belgium) and assessed for trabecular bone micro-architecture. For histological analysis, some tibia samples were demineralized in 10% EDTA for two weeks, dehydrated in graded ethanol solutions and embedded in paraffin wax using a Leica ASP300S tissue processor (Leica Microsystems Nussloch GmbH). Deparaffinized sections were stained with hematoxylin and eosin (H&E staining) and then observed under microscope.

[4] = system: BALB/cByJNarl mice; assay: Bone marrow adipogenesis in tibia, H&E histology, Docetaxel mice model; assay type: in vivo; conditions: FIG. 4A/4B, compared to the Control
Excerpt: as §2, with “15.” for “15. The Docetaxel+FIP-fve and Docetaxel+FIP-gts Groups were administered Taxotere® at the same dose on the same days as described above.”
Tibiae were separated from right hind limbs of the mice and defleshed. […] The tibia samples were sent to the Taiwan Mouse Clinic, funded by the National Research Program for Biopharmaceuticals (NRPB) of the National Science Council (NSC) in Taiwan, where the samples were scanned by applying three-dimensional micro-computed tomography (micro CT) in a high-resolution low-dose X-ray scanner (SkyScan 1076, Aartselaar, Belgium) and assessed for trabecular bone micro-architecture. […]

[5] = system: human patients with stage III or IV lung cancer; assay: Clinical study: FIP-gts tablets with Taxotere and cisplatin/carboplatin; assay type: in vivo; parameters: key to ECOG: 0: Asymptomatic (Fully active, able to carry on all pre-disease activities without restriction); 1: Symptomatic but completely ambulatory (Restricted in physically strenuous activity but ambulatory and able to carry out work of a light or sedentary nature. For example, light housework, office work); 2: Symptomatic, <50% in bed during the day (Ambulatory and capable of all self care but unable to carry out any work activities. Up and about more than 50% of waking hours); 3: Symptomatic, >50% in bed, but not bedbound (Capable of only limited self-care, confined to bed or chair 50% or more of waking hours); 4: Bedbound (Completely disabled. Cannot carry on any self-care. Totally confined to bed or chair); 5: Death; conditions: columns = course days; for Hb: in g/dL (unit assumed); for Cr.: in mg/dL (unit assumed)
Description: The inventors further conducted a clinical study on diminished quality of life (QOL) and cancer-related fatigue (CRF) caused by chemotherapy. The QOL and CRF of selected human patients were evaluated by the Eastern Cooperative Oncology Group (ECOG) Performance Status Scale from 0 to 5 (Oken M. M., et al., Am. J. Clin. Oncol.; 1982, 5(6): 649-55), where each grade represents:
Five human patients with stage III or IV lung cancer were enrolled in this study. During the study, each patient was administered Taxotere® at either a low dose of 20-30 mg/m^2 or a high dose of 60-69 mg/m^2 in conjunction with cisplatin/carboplatin on the designated days as prescribed by the physician, and received daily two tablets of FIP-gts (3 mg/tablet). The patients were asked to come back to the hospital on the designated days for follow up at the clinic and collection of blood samples. The patients were assessed for quality of life and fatigue according to the ECOG performance status system described above. The medical records of the five patients, as well as the administration regimens for the patients, were illustrated in Tables III.A-III.E below.

[6] = system: human lymphocytes; conditions: 3H-thymidine, compared to PHA; cited from earlier work
[7] = Docetaxel 30 mg/kg i.v. Days 1, 8, 15, daily FIP-fve 200 μg or FIP-gts 400 μg in 100 μL PBS from Day -3, Day 18
[8] = mice tibia, micro CT, Day 18, Docetaxel 30 mg/kg i.v., FIP-fve 200 μg or FIP-gts 400 μg daily
[9] = Patient Case 3, Taxotere + cisplatin + daily FIP-gts, chemotherapy course 1, April
[10] = Patient Case 3, Taxotere + cisplatin + daily FIP-gts, chemotherapy course 2, May 10
[11] = Patient Case 3, Taxotere + cisplatin + daily FIP-gts, chemotherapy course 3, May
[12] = Patient Case 4, low dose Taxotere + cisplatin/carboplatin + daily FIP-gts
[13] = Patient Case 4, low dose Taxotere + cisplatin/carboplatin + daily FIP-gts, in U/L (unit assumed)

CC(=O)O[C@@]12CO[C@@H]1C[C@H](O)[C@@]1(C)C(=O)[C@H](O)C3=C(C)[C@@H](OC(=O)[C@H](O)[C@@H](NC(=O)OC(C)(C)C)c4ccccc4)C[C@@](O)([C@@H](OC(=O)c4ccccc4)[C@H]21)C3(C)C [Docetaxel, (2R,3S)-N-carboxy-3-phenylisoserine, N-tert-butyl ester, 13-ester with 5, 20-epoxy-1,2,4,7, 10, 13-hexahydroxytax-11-en-9-one 4-acetate 2-benzoate, trihydrate]
HCT [1, 7]: 39.94 ± 1.19% | HGB [1, 7]: 11.77 ± 0.31 g/dL | MCH [1, 7]: 15.00 ± 0.16 pg | MCHC [1, 7]: 29.48 ± 0.05 g/dL | MCV [1, 7]: 50.82 ± 0.49 fL | MPV [1, 7]: 6.71 ± 0.17 fL | PLT [1, 7]: 317.88 ± 60.27 10^3/μL | RBC [1, 7]: 7.86 ± 0.24 ×10^6/μL | RDW [1, 7]: 29.26 ± 0.73 fL | WBC [1, 7]: 3.29 ± 0.80 ×10^3/μL | levels of white blood cells (WBC), red blood cells (RBC), hemoglobin (HGB), hematocrit (HCT) and platelets (PLT), in words ([1]; Docetaxel alone compared with the Control group): considerable reduction | structural integrity of villi, in words [2]: severely damaged and blunted | Bone surface density BS/TV [3, 8]: 3.852 1/U | Percent bone volume BV/TV [3, 8]: 5.634% | Structure model index SMI [3, 8]: 2.1757 | Trabecular number Tb.N [3, 8]: 0.8566 1/U | Trabecular separation Tb.Sp [3, 8]: 0.5623 U | Trabecular thickness Tb.Th [3, 8]: 0.06577 U | structural integrity of the tibia, in words ([3]; micro CT, FIG. 3A, compared to the Control Group): much more osteo-porous than the Control | Docetaxel-induced osteoporosis, in words ([3]; tibia samples, from trabecular number, percent bone volume, trabecular separation): induction of osteoporosis | adipogenesis in tibia bone marrow, in words [4]: increase in marrow adipose tissue

FIP-gts: fungal immunomodulatory protein of Ganoderma tsugae, SEQ ID NO: 1, produced according to WO2005040375A1; 3 mg tablets in the clinical study
ECOG ([5]; Patient Case 1, Taxotere + cisplatin/carboplatin + daily FIP-gts): 1 | ECOG ([5]; Patient Case 2, Taxotere + cisplatin/carboplatin + daily FIP-gts): 1 | ECOG ([5]; Patient Case 3, Taxotere + cisplatin + daily FIP-gts): 0 | AST ([5]; Patient Case 3, Taxotere + cisplatin + daily FIP-gts, in U/L (unit assumed), chemotherapy course 1, April): 14 | AST ([5]; Patient Case 3, Taxotere + cisplatin + daily FIP-gts, in U/L (unit assumed), chemotherapy course 2, May 10): 13 | AST ([5]; Patient Case 3, Taxotere + cisplatin + daily FIP-gts, in U/L (unit assumed), chemotherapy course 3, May): 15 | Hb [5, 9]: 14.9 | Hb [5, 10]: 13.9 | Hb [5, 11]: 12 | Cr. [5, 9]: 1.09 | Cr. [5, 10]: 0.94 | Cr. [5, 11]: 0.86 | ECOG [5, 12]: 1 | ALT [5, 13]: 10 and 9 | AST [5, 13]: 18 and 13 and 15 | Hb [5, 12]: 11.2 and 10 and 8.6 and 9.5 and 9.6 and 8.9 | Cr. [5, 12]: 0.8 and 0.89 and 1.15 | ECOG ([5]; Patient Case 5, low dose Taxotere + cisplatin + daily FIP-gts): 0 | WBC level, in words ([1]; co-treatment with Docetaxel): remarkably restored the WBC level to its control value | porosity of knee, distal femur and proximal tibia samples, in words ([3]; micro CT): considerably less porous | concentration sufficient to reach the maximum proliferation of human lymphocytes [6]: 5 µg/mL

B1: FIP-fve: fungal immunomodulatory protein purified from F. velutipes, SEQ ID NO: 2 (protein)
chain: SATSLTFQLAYLVKKIDFDYTPNWGRGTPSSYIDNLTFPKVLTDKKYSYRVVVNGSDLGVESNFAVTPSGGQTINFLQYNKGYGVADTKTIQVFVVIPDTGNSEEYIIAEWKKT
modifications: Flammulina Velutipes
HGB and PLT levels, in words ([1]; reduction caused by Docetaxel): lessened the reduction | porosity of knee, distal femur and proximal tibia samples, in words ([3]; micro CT): considerably less porous | concentration sufficient to reach the maximum proliferation of human lymphocytes [6]: 100 µg/mL
